Source: PubChem BioAssay AID1963873 (Molecular Pharmacology Branch, DTP, NCI, 2024)

system: 276233-004-R-J1-PDC KRAS spheroids with HUVEC/MSC, viability; experiment: Anticancer human tumor 276233-004-R-J1-PDC patient-derived colon adenocarcinoma cell line growth inhibition [KRAS2]; settings: second compound 0.316 µM; first compound 3.16 µM; stronger effect = lower value
Source text: Multicellular complex tumor spheroid response to RAS pathway inhibitors in combination with a targeted agents in patient-derived cell lines with oncogenic KRAS variants from multiple cancer types
A high-throughput screen of multi-cell type tumor spheroids was designed to identify active combinations of targeted small molecules and KRAS pathway inhibitors. Complex spheroids include a stromal component modeled by human endothelial cells (HUVEC) and fibroblasts modeled by human mesenchymal stem cells (MSCs). The concentration ranges selected for each drug and investigational agent were based upon clinically achievable concentrations if the clinical Cmax of the agent was known.
Compounds. The drugs and investigational agents: BI-3406 (NSC825286), BAY-293 (NSC824723), batoprotafib (TNO155; NSC825523), sotorasib (AMG 510; NSC818433), MRTX1257 (NSC819558), elimusertib (BAY 1895344; NSC800525), molibresib (GSK525762; NSC774829), temuterkib (LY3214996; NSC803410), venetoclax (NSC766270), alisertib (NSC759677), olaparib (NSC753686), talazoparib (NSC767125), erdafitinib (NSC781556), ipatasertib (NSC767898), cabozantinib (NSC761068), nintedanib (NSC756659), abemaciclib (NSC768073), docetaxel (NSC628503), trametinib (NSC758246), and sapanisertib (NSC764658) were obtained from the National Cancer Institute (NCI) Developmental Therapeutics Program Chemical Repository. The FDA-approved anticancer drug set is available from the Developmental Therapeutics Program. […] The stock solutions were prepared in dimethyl sulfoxide (DMSO, Sigma-Aldrich, St. Louis, MO, cat. D2650) at 800-fold the tested concentration and stored at -70 degrees C prior to their use. All drugs and investigational agents were tested over a range starting from a high concentration at or near the clinical Cmax and decreasing in half-log increments. If the clinical Cmax for an agent had not been determined, the highest concentration tested was 10 microM.
Cell Culture. All cells were maintained in an incubator at 37 degrees C and 5% CO2 with 95% humidity. The PDC lines were cultured according to standard operating procedures established by the NCI PDMR (https://pdmr.cancer.gov/sops/default.htm). Briefly, all PDCs were thawed and cultured in Matrigel-coated flasks prepared with a working solution of 1X Ham's F-12 nutrient mix, without supplementation (Invitrogen, Waltham, MA, cat. 11765054), 100 U/mL penicillin-streptomycin (Invitrogen, cat. 15140122), and 2.5% Matrigel (Corning Inc., Corning, NY, cat. 354248) for the first three passages. All PDCs were cultured in complete DMEM/F-12 media containing advanced DMEM/F-12 (Invitrogen, cat. 12634028), 4.9% defined fetal bovine serum, heat inactivated (HyClone Laboratories Inc., Logan, UT, cat. SH30070.03HI), 389 ng/mL hydrocortisone (Sigma-Aldrich, cat. H4001), 9.7 ng/mL human EGF recombinant protein (Invitrogen, cat. PHG0313), 23.4 microg/mL adenine (Sigma-Aldrich, cat. A2786), 97.3 U/mL penicillin-streptomycin (Invitrogen, cat. 15140122), 1.9 mM L-glutamine (Invitrogen, cat. 25030081), and 9.7 microM Y-27632 dihydrochloride (Tocris Bioscience, Bristol, United Kingdom, cat. 1254). The PDCs were cultured in complete DMEM/F12 media without 9.7 microM Y-27632 dihydrochloride for at least two passages prior to the screen. The established cell line HOP-62 was cultured in RPMI 1640 medium, HEPES (Invitrogen, cat. 22400105) with 10% defined fetal bovine serum (HyClone Laboratories Inc., cat. SH30070.03) and 2 mM L-glutamine (Invitrogen, cat. 25030081). The pooled donor HUVEC were cultured in endothelial cell growth medium 2 (PromoCell, Heidelberg, Germany, cat. C-22011) and the hMSC were cultured in mesenchymal stem cell growth medium 2 (PromoCell, cat. C-28009). For all experiments, HUVEC and hMSC were used at passages </=5, while the malignant cell lines were used at passages </=15. […]
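Further: cells exposed to agents for seven days before viability read; 100% = DMSO vehicle control wells and lower values mean fewer viable cells.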

`Cn1nccc1Nc1nccc(-c2cc3c(s2)C(C)(C)N(CCN2CCOCC2)C3=O)n1` + C=CC(=O)N1CCN(c2nc(=O)n(-c3c(C)ccnc3C(C)C)c3nc(-c4c(O)cccc4F)c(F)cc23)C(C)C1 showed a viability, T/C of 66.2%.

same assay, conditions: second compound 0.316 µM; first compound 10 µM; stronger effect = lower value

Compared with `COC(=O)c1ccc2c(C(=Nc3ccc(N(C)C(=O)CN4CCN(C)CC4)cc3)c3ccccc3)c(O)[nH]c2c1` + CC1OCC2(CCN(c3cnc(Sc4ccnc(N)c4Cl)c(N)n3)CC2)C1N, `COc1cc2nccc(Oc3ccc(NC(=O)C4(C(=O)Nc5ccc(F)cc5)CC4)cc3)c2cc1OC` + CNCc1ccccc1-c1csc(C(C)Nc2nc(C)nc3cc(OC)c(OC)cc23)c1 is lower in viability, T/C: 70.7% for the first, 67.2% for the second.

First: CCNC(=O)CC1N=C(c2ccc(Cl)cc2)c2cc(OC)ccc2-n2c(C)nnc21 (centres undefined) + CC1OCC2(CCN(c3cnc(Sc4ccnc(N)c4Cl)c(N)n3)CC2)C1N
Second: Cn1nccc1Nc1nccc(-c2cc3c(s2)C(C)(C)N(CCN2CCOCC2)C3=O)n1 + C=CC(=O)N1CCN(c2nc(=O)n(-c3c(C)ccnc3C(C)C)c3nc(-c4c(O)cccc4F)c(F)cc23)C(C)C1
The viability, T/C of the first is lower: 49.1% for the first, 66.4% for the second.

same assay, conditions: second compound 1 µM; first compound 0.0316 µM; stronger effect = lower value

Going from `COC(=O)c1ccc2c(C(=Nc3ccc(N(C)C(=O)CN4CCN(C)CC4)cc3)c3ccccc3)c(O)[nH]c2c1` + CC1OCC2(CCN(c3cnc(Sc4ccnc(N)c4Cl)c(N)n3)CC2)C1N to `COc1cc2nccc(Oc3ccc(NC(=O)C4(C(=O)Nc5ccc(F)cc5)CC4)cc3)c2cc1OC` + CNCc1ccccc1-c1csc(C(C)Nc2nc(C)nc3cc(OC)c(OC)cc23)c1, the viability, T/C rises from 67.8% to 74.8%.

Compared with `CCNC(=O)CC1N=C(c2ccc(Cl)cc2)c2cc(OC)ccc2-n2c(C)nnc21` (centres undefined) + CC1OCC2(CCN(c3cnc(Sc4ccnc(N)c4Cl)c(N)n3)CC2)C1N, `Cn1nccc1Nc1nccc(-c2cc3c(s2)C(C)(C)N(CCN2CCOCC2)C3=O)n1` + C=CC(=O)N1CCN(c2nc(=O)n(-c3c(C)ccnc3C(C)C)c3nc(-c4c(O)cccc4F)c(F)cc23)C(C)C1 is higher in viability, T/C: 79.8% for the first, 132% for the second.

same assay, conditions: second compound 1 µM; first compound 0.1 µM; stronger effect = lower value

Going from `COC(=O)c1ccc2c(C(=Nc3ccc(N(C)C(=O)CN4CCN(C)CC4)cc3)c3ccccc3)c(O)[nH]c2c1` + CC1OCC2(CCN(c3cnc(Sc4ccnc(N)c4Cl)c(N)n3)CC2)C1N to `COc1cc2nccc(Oc3ccc(NC(=O)C4(C(=O)Nc5ccc(F)cc5)CC4)cc3)c2cc1OC` + CNCc1ccccc1-c1csc(C(C)Nc2nc(C)nc3cc(OC)c(OC)cc23)c1, the viability, T/C falls from 61.1% to 58.8%.

First: CCNC(=O)CC1N=C(c2ccc(Cl)cc2)c2cc(OC)ccc2-n2c(C)nnc21 (centres undefined) + CC1OCC2(CCN(c3cnc(Sc4ccnc(N)c4Cl)c(N)n3)CC2)C1N
Second: Cn1nccc1Nc1nccc(-c2cc3c(s2)C(C)(C)N(CCN2CCOCC2)C3=O)n1 + C=CC(=O)N1CCN(c2nc(=O)n(-c3c(C)ccnc3C(C)C)c3nc(-c4c(O)cccc4F)c(F)cc23)C(C)C1
The viability, T/C of the first is lower: 71.5% for the first, 108% for the second.

same assay, conditions: second compound 1 µM; first compound 0.316 µM; stronger effect = lower value

Going from `COC(=O)c1ccc2c(C(=Nc3ccc(N(C)C(=O)CN4CCN(C)CC4)cc3)c3ccccc3)c(O)[nH]c2c1` + CC1OCC2(CCN(c3cnc(Sc4ccnc(N)c4Cl)c(N)n3)CC2)C1N to `COc1cc2nccc(Oc3ccc(NC(=O)C4(C(=O)Nc5ccc(F)cc5)CC4)cc3)c2cc1OC` + CNCc1ccccc1-c1csc(C(C)Nc2nc(C)nc3cc(OC)c(OC)cc23)c1, the viability, T/C rises from 54.3% to 68.7%.

Compared with `CCNC(=O)CC1N=C(c2ccc(Cl)cc2)c2cc(OC)ccc2-n2c(C)nnc21` (centres undefined) + CC1OCC2(CCN(c3cnc(Sc4ccnc(N)c4Cl)c(N)n3)CC2)C1N, `Cn1nccc1Nc1nccc(-c2cc3c(s2)C(C)(C)N(CCN2CCOCC2)C3=O)n1` + C=CC(=O)N1CCN(c2nc(=O)n(-c3c(C)ccnc3C(C)C)c3nc(-c4c(O)cccc4F)c(F)cc23)C(C)C1 is higher in viability, T/C: 63.9% for the first, 83.1% for the second.

same assay, conditions: second compound 1 µM; first compound 1 µM; stronger effect = lower value

First: COC(=O)c1ccc2c(C(=Nc3ccc(N(C)C(=O)CN4CCN(C)CC4)cc3)c3ccccc3)c(O)[nH]c2c1 + CC1OCC2(CCN(c3cnc(Sc4ccnc(N)c4Cl)c(N)n3)CC2)C1N
Second: CCNC(=O)CC1N=C(c2ccc(Cl)cc2)c2cc(OC)ccc2-n2c(C)nnc21 (centres undefined) + CC1OCC2(CCN(c3cnc(Sc4ccnc(N)c4Cl)c(N)n3)CC2)C1N
The viability, T/C of the first is higher: 55.1% for the first, 52.5% for the second.
